From patent US20250025520A1, “MICROBE-BASED MODULATION OF SEROTONIN BIOSYNTHESIS” (The Regents of the University of California, priority 2014, published 2025)

Experiments:
[1] = test system: colon 5-HT; assay: Colon 5-HT by ELISA, normalized to total protein; assay type: in vivo, mouse; details: for effects of a single rectal injection on raising colon 5-HT levels: time course
Text: (§1) Blood samples were collected by cardiac puncture and spun through SST vacutainers (Becton Dickinson) for serum separation or PST lithium hepararin vacutainers (Becton Dickinson, Franklin Lakes, NJ) for plasma separation. The entire length of the colon or 1 cm regions of the distal, medial and proximal colon of the small intestine were washed in PBS, flushed with PBS to remove luminal contents, and sonicated on ice in 10 s intervals at 20 mV in ELISA standard buffer supplemented with ascorbic acid (Eagle Biosciences, Nashua, NH). Serotonin levels were detected in sera and supernatant of tissue homogenates by ELISA according to the manufacturer's instructions (Eagle Biosciences, Nashua, NH). Readings from tissue samples were normalized to total protein content as detected by BCA assay (Thermo Pierce). Data compiled across multiple experiments are expressed as 5-HT concentrations normalized to SPF controls within each experiment.

[2] = test system: serum 5-HT; assay: Serum 5-HT by ELISA; assay type: in vivo, mouse
Text: as §1

[3] = test system: TPH1; assay: Intestinal qRT-PCR, colonic TPH1 expression relative to GAPDH; assay type: in vivo, mouse
Experimental: The entire length of the mouse colon, or 1 cm regions of the distal, medial and proximal of the mouse small intestine were washed in PBS, flushed with PBS to remove luminal contents, and homogenized in ice-cold Trizol for RNA isolation using the RNeasy Mini Kit with on-column genomic DNA-digest (Qiagen) and cDNA synthesis using iScript (Biorad). qRT-PCR was performed on an ABI 7900 thermocycler using SYBR green master mix with Rox passive reference dye (Roche) and validated primer sets obtained from Primerbank (Harvard).

[4] = test system: SLC6A4; assay: Intestinal qRT-PCR, colonic SLC6A4 expression relative to GAPDH; assay type: in vivo, mouse; details: Sp-colonized mice, PCPA intrarectally
[5] = test system: colonic enterochromaffin cells (ECs); assay: Immunofluorescence staining of 5-HT and CgA in colon; assay type: in vivo, mouse
Experimental: (§2) Mouse colon was cut into distal, medial and proximal sections, and 1 cm regions of the distal, medial and proximal small intestine were fixed in Bouin's solution (Sigma Aldrich) overnight at 4° C., washed and stored in 70% ethanol. Intestinal samples were then paraffin-embedded and cut into 10 um longitudinal sections by Pacific Pathology, Inc (San Diego, CA). Sections were stained using standard procedures. Briefly, slides were deparaffinized, and antigen retrieval was conducted for 1 hr in a 95° C. water bath in 10 mM sodium citrate, pH 6.0 or DAKO solution (Agilent Technologies). […] For 5-HT and CgA staining, numbers of positively-stained puncta were scored blindly, normalized to total area of intestinal mucosa using ImageJ software (NIH) (Schneider et al., Nature Methods 9:671-675 (2012)), and then averaged across biological replicates. For calretinin, cfos and 5HT4 staining, fluorescence intensity for individual stains was quantified and normalized to total area of intestinal submucosa and muscularis externa using ImageJ software. Colocalization was measured and analyzed using the Coloc2 plug-in for Fiji software described in Schindelin et al., Nature Methods 9:676-682 (2012). […]

[6] = test system: intrinsic afferent primary neurons (IPANs) of the myenteric plexus; assay: c-fos and calretinin (Calb2) colocalization; assay type: in vivo, mouse; details: Sp-colonized mice treated with PCPA
Experimental: as §2

[7] = Tail bleed assay; assay type: in vivo, mouse; details: Sp-colonized mice, intrarectal PCPA
Experimental: Mice were anesthetized with isoflurane and the distal 6 mm portion of the tail was transected using a fresh razor blade. The tail was placed immediately at a 2 cm depth into a 50 mL conical tube containing saline pre-warmed to 37° C. (Liu et al., World J. Exp. Med. 2:30-36 (2012)). Time to bleeding cessation was recorded, with continued recording if re-bleeding occurred within 15 seconds of initial cessation and a maximum total bleed time of 5 minutes. Mice were sacrificed by CO2 immediately after the assay.

[8] = test system: platelets; assay: Platelet aggregation assay, collagen stimulation, flow cytometry; assay type: in vivo, mouse; details: Sp-colonized mice, colonic PCPA injection
Experimental: Blood samples were collected by cardiac puncture, diluted with a 2× volume of HEPES medium (132 mM NaCl, 6 mM KCl, 1 mM MgSO4, 1.2 mM KH2PO4, 20 mM HEPES, 5 mM glucose; pH 7.4) and centrifuged through PST lithium hepararin vacutainers (Becton Dickinson). Expression of platelet activation markers was measured by flow cytometry (Nieswandt et al., Methods Mol. Biol. 272:255-268 (2004); Ziu et al., J. Mol. Cell. Cardiol. 52:1112-1121 (2012)). Briefly, PRP samples were supplemented with 1 mM CaCl2, and 1×10^6 platelets were stimulated with 10 μg/ml type-1 HORM collagen (Chronolog), and stained with anti-JON/APE, anti-P-selectin-FITC (Emfret Analytics), anti-CD63-PE (Biologend), anti-CD41-FITC (BD Biosciences) and anti-CD9-APC (Abcam) for 15 min at room temperature. Samples were then washed in PBS, fixed with 0.5% formaldehyde and analyzed using a FACS Calibur flow cytometer (BD Biosciences). Platelet aggregation assays were conducted according to methods described in (De Cuyper et al., Blood 121:070-e80 (2013)). Briefly, 4×10^6 platelets were stained separately with CD9-APC or CD9-PE (Abcam) for 15 minutes at room temperature and then washed with HEPES medium. Labeled platelets were mixed 1:1 and incubated for 15 minutes at 37° C., with shaking at 600 rpm. Platelets were then stimulated with 10 μg/ml type-1 collagen for 2 min and fixed in 0.5% formaldehyde for flow cytometry. […]

[9] = test system: RIN14B cells; assay: RIN14B in vitro culture, 5-HT release; details: for 5-HT in RIN14B chromaffin cell cultures: α-tocopherol 8 uM, butyrate 100 uM, cholate 75 uM, deoxycholate 25 uM, p-aminobenzoate 1 uM, propionate 100 uM, tyramine 100 uM
[10] = test system: TPH1 in RIN14B cells; assay: RIN14B in vitro culture, TPH1 expression by qRT-PCR; details: colonic luminal filtrate, or 15 uM ionomycin; relative to vehicle-treated controls
[11] = GF mice colonized with hSp, PCPA treatment
[12] = Sp-colonized GF mice, PCPA intrarectally twice daily for 3 days
[13] = GF mice, oral supplementation in water 1.5 mg/ml, 2 weeks
[14] = GF mice, intrarectal injection: deoxycholate 125 mg/kg, α-tocopherol 2.25 mg/kg, PABA 1.37 μg/kg, tyramine 0.137 mg/kg, oleanolate 0.46 mg/kg, vs vehicle

Q: For `N[C@@H](Cc1ccc(Cl)cc1)C(=O)O` (racemic) [PCPA, parachlorophenylalanine], which “colon 5-HT” value [1, 11] is on record?
A: blocking increases

Q: What about the “colon 5-HT levels” value [1, 12] of the same compound?
A: sufficiently blocks the ability of Sp to elevate

Q: What about the “serum 5-HT” value [2, 11] of the same compound?
A: blocking increases

Q: What about the “serum 5-HT levels” value [2, 12] of the same compound?
A: sufficiently blocks the ability of Sp to elevate

Q: And the “colonic TPH1 expression” value ([3]; Sp-colonized mice, PCPA intrarectally)?
A: compensatory increase in colonic TPH1

Q: What about the “colonic SLC6A4 expression” value [4] of the same compound?
A: decrease in SLC6A4

Q: What about the “5-HT staining in colonic ECs” value [5, 11] of the same compound?
A: blocking increases

Q: What about the “5-HT staining in ECs” value [5, 12] of the same compound?
A: sufficiently blocks

Q: What about the IPAN activation [6] of the same compound?
A: decreases IPAN activation

Q: What about the “Sp effect on bleeding time” value [7] of the same compound?
A: attenuated

Q: And the “Sp effect on platelet aggregation” value [8]?
A: attenuated

Q: For `N[C@@H](Cc1c[nH]c2ccc(O)cc12)C(=O)O` [5-HTP, 5-hydroxytryptophan], which “colon 5-HT” value [1, 13] is on record?
A: sufficiently ameliorates deficits

Q: And the “serum 5-HT” value [2, 13]?
A: sufficiently ameliorates deficits

Q: With `Nc1ccc(C(=O)O)cc1` [PABA, p-aminobenzoate] as the compound, how does the “colon 5-HT” value [1, 14] read?
A: Increases

Q: What about the “serum 5-HT” value [2, 14] of the same compound?
A: Increases

Q: What about the “5-HT in RIN14B chromaffin cell cultures” value [9] of the same compound?
A: elevate 5-HT

Q: For `N[C@@H](Cc1c[nH]c2ccccc12)C(=O)O` [Trp, tryptophan], which “colon 5-HT” value [1, 13] is on record?
A: no restorative effect

Q: What about the “serum 5-HT” value [2, 13] of the same compound?
A: no restorative effect

Q: With `C[C@H](CCC(=O)O)[C@H]1CC[C@H]2[C@@H]3[C@H](O)C[C@@H]4C[C@H](O)CC[C@]4(C)[C@H]3C[C@H](O)[C@]12C` [cholate] as the compound, how does the “5-HT in RIN14B chromaffin cell cultures” value [9] read?
A: elevate 5-HT

Q: For `C[C@H](CCC(=O)O)C[C@H](C)C[C@H](C)C(=O)/C=C(\O)[C@H](C)C[C@H](C)C/C=C/[C@@H](C)[C@@H](O)[C@@H](C)[C@@H](O)C[C@@H]1CC[C@@](C)([C@H]2CC[C@@](C)([C@@H](C)O)O2)O1` [ionomycin, reference compound], which “5-HT released from RIN14B cells” value ([9]; colonic luminal filtrate 1 hr at 37° C., or 15 uM ionomycin, relative to vehicle-treated controls) is on record?
A: stimulates 5-HT release

Q: What about the “TPH1 expression in RIN14B cells” value [10] of the same compound?
A: no effect on TPH1 expression

Q: Which results are given for `CC1(C)CC[C@]2(C(=O)O)CC[C@]3(C)C(=CC[C@@H]4[C@@]5(C)CC[C@H](O)C(C)(C)[C@@H]5CC[C@]43C)[C@@H]2C1` [oleanolate]?
A: colon 5-HT [1, 14]: no statistically significant effect; serum 5-HT [2, 14]: no statistically significant effect

Q: With `CCC(=O)O` [propionate] as the compound, how does the “5-HT in RIN14B chromaffin cell cultures” value [9] read?
A: elevate 5-HT

Q: For `NCCc1ccc(O)cc1` [tyramine], which “colon 5-HT” value [1, 14] is on record?
A: Increases

Q: What about the “serum 5-HT” value [2, 14] of the same compound?
A: Increases

Q: And the “5-HT in RIN14B chromaffin cell cultures” value [9]?
A: elevate 5-HT

Q: Which “colon 5-HT” value [1, 14] does the source give for `Cc1c(C)c2c(c(C)c1O)CC[C@@](C)(CCC[C@H](C)CCC[C@H](C)CCCC(C)C)O2` [α-tocopherol] here?
A: Increases

Q: And the “effects of a single rectal injection on raising colon 5-HT levels” value ([1]; GF mice)?
A: weak and transient

Q: What about the “serum 5-HT” value [2, 14] of the same compound?
A: Increases

Q: What about the “5-HT in RIN14B chromaffin cell cultures” value [9] of the same compound?
A: elevate 5-HT

Q: With Bacteroides fragilis as the compound, how does the “serum 5-HT levels” value ([2]; GF mice colonized, monoassociated or conventionalized, compared with GF and SPF controls) read?
A: deficits in serum 5-HT that are comparable to those seen in GF mice

Q: For deoxycholate, which “colon 5-HT” value [1, 14] is on record?
A: sufficiently increases

Q: And the “effects of a single rectal injection on raising colon 5-HT levels” value ([1]; GF mice)?
A: weak and transient

Q: And the “serum 5-HT” value [2, 14]?
A: sufficiently increases

Q: What about the “colonic TPH1 expression” value ([3]; GF mice, intrarectal deoxycholate 125 mg/kg, 1 hr post injection) of the same compound?
A: elevations in colonic TPH1 expression

Q: And the “5-HT in RIN14B chromaffin cell cultures” value [9]?
A: elevate 5-HT
